According to patent publication US6638912B2, “Peptide compositions mimicking TGF-β activity” (The Regents of the University of California, priority 1995, dated 2003):
Entries after “also recorded” stand apart in the source; their conditions may differ. Read-outs that look alike come from different tables or passages of the source. Square brackets hold non-standard residues; d marks the D form. Ends that are not written are not given here. NMeA = CN[C@@H](C)C(=O)O; Abu = CC[C@H](N)C(=O)O; Aib = CC(C)(N)C(=O)O

Experiments:
[1] = test system: Mv-1-Lu mink lung epithelial cells; assay: Inhibition of DNA synthesis (3H-thymidine incorporation) and proliferation of Mv-1-Lu cells; type: cell-based; settings: for Bioactivity as agonist (tested as for DNA inhibition): Example 7; for Inhibition in comparison to cytomodulin (Inhib by new peptide/Inhib by cytomodulin): 3H-thymidine incorporation, MV-1-Lu cells; for Inhibition of DNA synthesis / proliferation of Mv-1-Lu cells (in words): 10−9 to 10−6 M range; for % Inhibition of incorporation of 3H-thymidine / 3H-Radioactivity: MV-1 Lu cells; for 3H-Radioactivity: control without peptide 3.57
Experimental: The effect of TGF-β and cytomodulin were evaluated by determining the rate of […]thyidine incorporation into total acid-insoluble DNA and cell number. See generally, Sampath et al., Journal of Biological Chemistry, 267, pp. 20352-20362 (1992). DNA synthesis rates were determined in triplicate cultures after 24 hour treatment with various concentrations (10−9 M to 10^−6M) of either TGF-β or cytomodulin (which was synthesized by the Merrifield method) by adding [methyl-^3H]thymidine (2 μCi/ml, 80 Ci/mmol) for 6 hours before the termination of the culture. Incorporation was terminated by aspiration of the medium, and after washing three times with phosphate-buffered saline, the trichloroacetic acid (10%)-precipitated radioactive DNA was extracted with 1.0% (w/v) sodium dodecyl sulfate, 0.1 M NaOH and quantitated by liquid scintillation counting. For cell number determination, 1×10^5 cells were plated in flasks in MEM containing 10% FBS, and after 24 hours, the growth medium was replaced with serum-free medium containing various conceptions of TGF-β and cytomodulin. Triplicate cultures were harvested every 24 hours for the duration of 7 days, and the cell number was determined by counting cells released by trypsin digestion in a fixed volume hemacytometer.
The numbers shown at the various concentration are the ratio of the inhibition rate of the peptide being tested over the inhibition rate of cytomodulin (SEQ ID NO: 1) at the same concentration.
Tests for bioactivity were conducted as described above for DNA inhibition.

[2] = test system: human osteogenic sarcoma (HOS) cell line; assay: Gene expression in HOS cells (Northern analysis); type: cell-based
Experimental: (§1) Total cellular RNA was isolated using essentially the method described by Maniatis. Sambrook et al., Molecular Cloning: A Laboratory Marual, Cold Spring Harbor Laboratory Press, Second Edition (1989). Cells were lysed with 0.5% SDS and 0.1 potassium acetate. The lysate was extracted with phenol and centrifuiged at 5000 rpm for 15 minutes. The aqueous phase was precipitated with 2 volumes ethanol in 0.1 M Tris, pH 8.0 and 0.2 M NaCl. The pellet was resuspended and quantitated by measuring the ultraviolet absorbance at 260 nm. RNA purity was assessed by comparing the ultraviolet absorbance at 260 inm with that at 280 nm.
(§2) RNA (10 μg/lane) was electrophoresed at 3 to 4 v/cm through a 0.7% agarose, 2.2 M formaldehyde denaturing gel. RNA was transferred by capillary transfer to nylon membranes. RNA integrity, gel loading, and transfer efficiency were assessed by methylene blue stained 28S and 18 S bands. The filters were baked at 80° C. for 2 hours to immobilize the RNA. After baking, the filters were hybridized at 65° C. in 0.5 M NaPO4 buffer, pH 7.0, containing 1 mM EDTA, 7% sodium dodecyl sulfate, and 1% bovine serum albumin. cDNA probes were labeled with DDIG […] by the random primer method, using Klenow enzyme. Hybridization for 18 hours at 65° C. followed by washing, was performed.
(§3) Data were analyzed by scanning digoxigenin-dVTP according to manufacturer's procedure (Boehringer Mannheim Biochemica, DIG DNA labelling kit, Cat. No. 1175033).

[3] = test system: NRK-49 F normal rat kidney fibroblasts; assay: Growth and colony formation by NRK-49 F fibroblasts in soft agar; type: cell-based; settings: for Colony formation in soft agar: 100 nM
Experimental: The original assay for TGF-β, the ability to promote anchorage independent growth of normal fibroblasts is still one of the hallmarks of TGF-β activity. NRK-49 F fibroblasts were grown at 37° C. in DEM supplemented with 10% fetal calf serum. […] To this, either 100 nM TGF-β (positive control) or 100 nM cytomodulin was added. NRK49 F fibroblasts (5×10^4 cells/ml) were mixed with 0.3% agar were plated on the bottom of 35 mm culture dishes. Colony formation was observed starting on day 3 of culture.

TGF-β activity = assay: TGF-β like activity, overall statement, test not specified; type: cell-based
human dermal fibroblasts = assay: Gene expression in human dermal fibroblasts (Northern analysis); type: cell-based
Experimental: as §1, §2, §3

[4] = test system: NRK-49 F normal rat kidney fibroblasts; settings: in the absence of EGF and PDGF; from Massagu, J. Biol. Chem. 259 (1984); cited from earlier work
[5] = 1 mM peptide (so in the source)

L-I-(Aib)-E-A-K (LI[Aib]EAK) [SEQ ID NO:22]
Bioactivity as agonist (tested as for DNA inhibition) [1]: active as an agonist

L-I-A-K-G-K (LIAKGK; TGF-beta mimic) [SEQ ID NO:16]
Inhibition in comparison to cytomodulin (Inhib by new peptide/Inhib by cytomodulin) ([1]; 10 nM): 0.65 | Inhibition in comparison to cytomodulin (Inhib by new peptide/Inhib by cytomodulin) ([1]; 100 nM): 0.67

L-I-A-E-A-K (LIAEAK; TGF-beta mimic) [L2]
Expression of TGF-β [2]: increased the expression | Expression of alkaline phosphatase [2]: increased the expression | Expression of type I collagen [2]: increased the expression | Inhibition of DNA synthesis / proliferation of Mv-1-Lu cells (in words) [1]: inhibited the proliferation | Growth and colony formation of NRK-49F cells in soft agar (in words) [3]: promoted the growth | TGF-β like activity (TGF-β activity): at least as much TGF-β like activity as cytomodulin | Expression of TGF-β (human dermal fibroblasts): increased the expression | Expression of collagenase (human dermal fibroblasts): decreased the expression | Expression of type I collagen (human dermal fibroblasts): increased the expression

L-I-A-E-A-A (LIAEAA; TGF-beta mimic) [SEQ ID NO:11]
Inhibition in comparison to cytomodulin (Inhib by new peptide/Inhib by cytomodulin) ([1]; 1 nM): 1.16 | Inhibition in comparison to cytomodulin (Inhib by new peptide/Inhib by cytomodulin) ([1]; 10 nM): 1.00 | Inhibition in comparison to cytomodulin (Inhib by new peptide/Inhib by cytomodulin) ([1]; 100 nM): 1.17 | Inhibition in comparison to cytomodulin (Inhib by new peptide/Inhib by cytomodulin) ([1]; 1000 nM): 1.85 | Inhibition of DNA synthesis / proliferation of Mv-1-Lu cells (in words) [1]: at least as much activity as cytomodulin

L-I-(Nme-A)-E-A-K (LI[NMeA]EAK) [SEQ ID NO:5]
% Inhibition of incorporation of 3H-thymidine ([1]; 1 nM peptide): 47% | 3H-Radioactivity ([1]; 1 nM peptide): 1.61 10^3 dpm | % Inhibition of incorporation of 3H-thymidine ([1]; 5 nM peptide): 42% | 3H-Radioactivity ([1]; 5 nM peptide): 1.76 10^3 dpm | % Inhibition of incorporation of 3H-thymidine ([1]; 50 nM peptide): 41% | 3H-Radioactivity ([1]; 50 nM peptide): 1.60 10^3 dpm | % Inhibition of incorporation of 3H-thymidine ([1]; 100 nM peptide): 40% | 3H-Radioactivity ([1]; 100 nM peptide): 1.81 10^3 dpm | % Inhibition of incorporation of 3H-thymidine ([1]; 500 nM peptide): 53% | 3H-Radioactivity ([1]; 500 nM peptide): 1.42 10^3 dpm

L-(Abu)-A-E-A-K (L[Abu]AEAK) [SEQ ID NO:6]
% Inhibition of incorporation of 3H-thymidine ([1]; 1 nM peptide): 33% | 3H-Radioactivity ([1]; 1 nM peptide): 2.02 10^3 dpm | % Inhibition of incorporation of 3H-thymidine ([1]; 5 nM peptide): 35% | 3H-Radioactivity ([1]; 5 nM peptide): 1.97 10^3 dpm

L-I-A-G-E-G (LIAGEG; TGF-beta mimic) [SEQ ID NO:14]
Inhibition in comparison to cytomodulin (Inhib by new peptide/Inhib by cytomodulin) ([1]; 1 nM): 0.66 | Inhibition in comparison to cytomodulin (Inhib by new peptide/Inhib by cytomodulin) ([1]; 10 nM): 0.85 | Inhibition in comparison to cytomodulin (Inhib by new peptide/Inhib by cytomodulin) ([1]; 100 nM): 1.41 | Inhibition in comparison to cytomodulin (Inhib by new peptide/Inhib by cytomodulin) ([1]; 1000 nM): 1.88

L-(Aib)-A-E-A-K (L[Aib]AEAK) [SEQ ID NO:4]
% Inhibition of incorporation of 3H-thymidine ([1]; 5 nM peptide): 35% | 3H-Radioactivity ([1]; 5 nM peptide): 2.31 10^3 dpm | % Inhibition of incorporation of 3H-thymidine ([1]; 50 nM peptide): 46% | 3H-Radioactivity ([1]; 50 nM peptide): 1.94 10^3 dpm | % Inhibition of incorporation of 3H-thymidine ([1]; 100 nM peptide): 60% | 3H-Radioactivity ([1]; 100 nM peptide): 1.44 10^3 dpm | % Inhibition of incorporation of 3H-thymidine ([1]; 500 nM peptide): 55% | 3H-Radioactivity ([1]; 500 nM peptide): 1.61 10^3 dpm | % Inhibition of incorporation of 3H-thymidine [1, 5]: 27% | 3H-Radioactivity [1, 5]: 2.60 10^3 dpm

E-G-I-A-G-K (EGIAGK; TGF-beta mimic) [SEQ ID NO:8]
TGF-β like activity (TGF-β activity): did not display significant TGF-β activity

L-I-A-D-A-K (LIADAK; TGF-beta mimic) [SEQ ID NO:9]
Inhibition in comparison to cytomodulin (Inhib by new peptide/Inhib by cytomodulin) ([1]; 1 nM): 0.45 | Inhibition in comparison to cytomodulin (Inhib by new peptide/Inhib by cytomodulin) ([1]; 10 nM): 0.87 | Inhibition in comparison to cytomodulin (Inhib by new peptide/Inhib by cytomodulin) ([1]; 100 nM): 1.14 | Inhibition in comparison to cytomodulin (Inhib by new peptide/Inhib by cytomodulin) ([1]; 1000 nM): 1.25

A-N-V-A-E-N-A (ANVAENA; TGF-beta mimic) [cytomodulin]
Expression of TGF-β [2]: increased the expression | Expression of alkaline phosphatase [2]: stimulate; also recorded: increased the expression | Expression of osteonectin [2]: stimulate | Expression of type I collagen [2]: increased the expression | Inhibition of DNA synthesis / proliferation of Mv-1-Lu cells (in words) [1]: inhibition of DNA synthesis; also recorded: at least as much as TGF-β | Colony formation in soft agar ([3]; with EGF and PDGF): formed colonies to approximately the same extent as the TGF-β cultures; also recorded: much larger colonies | Colony formation in soft agar ([3]; without EGF and PDGF): did induce colony formation; also recorded: formation of small colonies | Expression of type I collagen (human dermal fibroblasts): induction of increased expression

TGF-β
Colony formation in soft agar ([3]; with EGF and PDGF): grew colonies | Colony formation in soft agar [4]: does not induce colony formation

L-I-P-E-A-K (LIPEAK; TGF-beta mimic) [SEQ ID NO:21]
Bioactivity as agonist (tested as for DNA inhibition) [1]: active as an agonist

L-I-A-G-G-E (LIAGGE; TGF-beta mimic) [SEQ ID NO:13]
Inhibition in comparison to cytomodulin (Inhib by new peptide/Inhib by cytomodulin) ([1]; 1 nM): 1.10 | Inhibition in comparison to cytomodulin (Inhib by new peptide/Inhib by cytomodulin) ([1]; 10 nM): 1.33 | Inhibition in comparison to cytomodulin (Inhib by new peptide/Inhib by cytomodulin) ([1]; 100 nM): 1.45 | Inhibition in comparison to cytomodulin (Inhib by new peptide/Inhib by cytomodulin) ([1]; 1000 nM): 1.90 | Inhibition of DNA synthesis / proliferation of Mv-1-Lu cells (in words) [1]: inhibits thymidine uptake more than SEQ ID NO: 14

G-G-Q-I-A-N-I (GGQIANI; TGF-beta mimic) [SEQ ID NO:7]
TGF-β like activity (TGF-β activity): did not display significant TGF-β activity

L-I-A-N-A-K (LIANAK; TGF-beta mimic) [SEQ ID NO:10]
Inhibition in comparison to cytomodulin (Inhib by new peptide/Inhib by cytomodulin) ([1]; 1 nM): 1.70 | Inhibition in comparison to cytomodulin (Inhib by new peptide/Inhib by cytomodulin) ([1]; 10 nM): 2.00 | Inhibition in comparison to cytomodulin (Inhib by new peptide/Inhib by cytomodulin) ([1]; 100 nM): 1.43 | Inhibition in comparison to cytomodulin (Inhib by new peptide/Inhib by cytomodulin) ([1]; 1000 nM): 3.05 | Inhibition of DNA synthesis / proliferation of Mv-1-Lu cells (in words) [1]: even more than cytomodulin at every concentration tested

L-I-A-Q-A-K (LIAQAK; TGF-beta mimic) [SEQ ID NO:12]
Inhibition in comparison to cytomodulin (Inhib by new peptide/Inhib by cytomodulin) ([1]; 1 nM): 0.90 | Inhibition in comparison to cytomodulin (Inhib by new peptide/Inhib by cytomodulin) ([1]; 10 nM): 1.10 | Inhibition in comparison to cytomodulin (Inhib by new peptide/Inhib by cytomodulin) ([1]; 100 nM): 0.80 | Inhibition in comparison to cytomodulin (Inhib by new peptide/Inhib by cytomodulin) ([1]; 1000 nM): 1.56

L-I-(D-Ala)-E-A-K (LI[dA]EAK) [SEQ ID NO:39]
Bioactivity as agonist (tested as for DNA inhibition) [1]: active as an agonist

L-I-A-P-E-A (LIAPEA; TGF-beta mimic) [L1]
Expression of TGF-β [2]: increased the expression | Expression of alkaline phosphatase [2]: increased the expression | Expression of type I collagen [2]: increased the expression | Inhibition of DNA synthesis / proliferation of Mv-1-Lu cells (in words) [1]: inhibited the proliferation | Growth and colony formation of NRK-49F cells in soft agar (in words) [3]: promoted the growth | TGF-β like activity (TGF-β activity): at least as much TGF-β like activity as cytomodulin | Expression of TGF-β (human dermal fibroblasts): increased the expression | Expression of collagenase (human dermal fibroblasts): decreased the expression | Expression of type I collagen (human dermal fibroblasts): increased the expression

A-N-V-A-E-K (ANVAEK; TGF-beta mimic) [SEQ ID NO:15]
Inhibition in comparison to cytomodulin (Inhib by new peptide/Inhib by cytomodulin) ([1]; 10 nM): 0.80 | Inhibition in comparison to cytomodulin (Inhib by new peptide/Inhib by cytomodulin) ([1]; 100 nM): 1.00
